Data taken from patent US20020137929A1, “1 - (3-heterocyclylphenyl) isothiourea, -isourea, -guanidine and -amidine herbicidal agents” (Intellectual Property Department, BASF Aktiengesellschaft, priority 1998, published 2002).

Experiments:
[1] = test system: IPOHE (Morningglory, Ivyleaf); test: Preemergence herbicidal evaluation; type: in vivo, Ipomoea hederacea; conditions: rated 4-5 weeks after treatment, rating scale 0-9
Summary of the method: (§1)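 Preemergence soil application of compound, sprayed in aqueous acetone at rates equivalent to about 0.0156 to 0.500 kg per hectare onto freshly sown cups. Plant response was judged by eye on a 0-9 scale four to five weeks later.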

[2] = test system: ZEAMX (Corn, Field); test: Preemergence herbicidal evaluation; type: in vivo, Zea mays; conditions: rated 4-5 weeks after treatment, rating scale 0-9
Summary of the method: as §1

[3] = test system: GLXMAW (Soybean, Williams); test: Postemergence herbicidal evaluation; type: in vivo, Glycine max, (L.) Merr. cv Williams; conditions: postemergence
Summary of the method: (§2)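 ~2-wk seedlings; postemergence spray, 40 psi; vehicle 1:1 acetone:water + 0.5% Tween 20; rate ≈0.0156–0.500 kg/ha; greenhouse hold; scored 4–5 wk after treatment, 0–9 scale vs control; repeat tests averaged.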

[4] = test system: TRZAWR (Wheat, Winter, cv Riband); test: Postemergence herbicidal evaluation; type: in vivo, Triticum aestivum; conditions: postemergence
Summary of the method: as §2

[5] = test system: SETVI (Foxtail, Green); test: Postemergence herbicidal evaluation; type: in vivo, Setaria viridis; conditions: postemergence
Summary of the method: as §2

[6] = test system: IPOHE (Morningglory, Ivyleaf); test: Postemergence herbicidal evaluation; type: in vivo, Ipomoea hederacea; conditions: postemergence
Summary of the method: as §2

[7] = test system: ECHCG (Barnyardgrass); test: Preemergence herbicidal evaluation; type: in vivo, Echinochloa crus-galli; conditions: rated 4-5 weeks after treatment, rating scale 0-9
Summary of the method: as §1

[8] = test system: CHEAL (Lambsquarters, Common); test: Preemergence herbicidal evaluation; type: in vivo, Chenopodium album; conditions: rated 4-5 weeks after treatment, rating scale 0-9
Summary of the method: as §1

[9] = test system: ECHCG (Barnyardgrass); test: Postemergence herbicidal evaluation; type: in vivo, Echinochloa crus-galli; conditions: postemergence
Summary of the method: as §2

[10] = test system: AMBEL (Ragweed, Common); test: Postemergence herbicidal evaluation; type: in vivo, Ambrosia artemisifolia; conditions: postemergence
Summary of the method: as §2

[11] = test system: CASOB (Sicklepod); test: Preemergence herbicidal evaluation; type: in vivo, Cassia obtusifolia; conditions: rated 4-5 weeks after treatment, rating scale 0-9
Summary of the method: as §1

[12] = test system: ABUTH (Velvetleaf); test: Postemergence herbicidal evaluation; type: in vivo, Abutilon theophrasti; conditions: postemergence
Summary of the method: as §2

[13] = test system: GALAP (Galium); test: Preemergence herbicidal evaluation; type: in vivo, Galium aparine; conditions: rated 4-5 weeks after treatment, rating scale 0-9
Summary of the method: as §1

Cn1c(C(F)(F)F)cc(=O)n(-c2cc(N=C3SCC(=O)N3Cc3ccc(Cl)cc3)c(Cl)cc2F)c1=O [Compound 145, 3-{4-Chloro-5-{[3-(p-chlorobenzyl)-4-oxo-2-thiazolidinylidene]amino}-2-fluorophenyl}-1-methyl-6-(trifluoromethyl)-2,4(1H,3H)-pyrimidinedione]
Preemergence herbicidal rating IPOHE ([1]; rate 0.0156 kg/ha): 0.0
Preemergence herbicidal rating IPOHE ([1]; rate 0.0313 kg/ha): 0.0
Preemergence herbicidal rating IPOHE ([1]; rate 0.0625 kg/ha): 0.0
Preemergence herbicidal rating IPOHE ([1]; rate 0.1250 kg/ha): 7.0
Preemergence herbicidal rating IPOHE ([1]; rate 0.2500 kg/ha): 5.0
Preemergence herbicidal rating ZEAMX ([2]; rate 0.0156 kg/ha): 0.0
Preemergence herbicidal rating ZEAMX ([2]; rate 0.0313 kg/ha): 0.0
Preemergence herbicidal rating ZEAMX ([2]; rate 0.0625 kg/ha): 0.0
Preemergence herbicidal rating ZEAMX ([2]; rate 0.1250 kg/ha): 1.0
Preemergence herbicidal rating ZEAMX ([2]; rate 0.2500 kg/ha): 2.0
herbicidal rating GLXMAW ([3]; rate 0.0156 kg/ha): 4.5
herbicidal rating GLXMAW ([3]; rate 0.0313 kg/ha): 5.0
herbicidal rating GLXMAW ([3]; rate 0.0625 kg/ha): 5.5
herbicidal rating TRZAWR ([4]; rate 0.0156 kg/ha): 3.0
herbicidal rating TRZAWR ([4]; rate 0.0313 kg/ha): 3.0
herbicidal rating TRZAWR ([4]; rate 0.0625 kg/ha): 4.0
herbicidal rating SETVI ([5]; rate 0.0156 kg/ha): 1.0
herbicidal rating SETVI ([5]; rate 0.0313 kg/ha): 3.0
herbicidal rating SETVI ([5]; rate 0.0625 kg/ha): 5.0
herbicidal rating IPOHE ([6]; rate 0.0156 kg/ha): 9.0
herbicidal rating IPOHE ([6]; rate 0.0313 kg/ha): 9.0
herbicidal rating IPOHE ([6]; rate 0.0625 kg/ha): 9.0
Preemergence herbicidal rating ECHCG ([7]; rate 0.0156 kg/ha): 0.0
Preemergence herbicidal rating ECHCG ([7]; rate 0.0313 kg/ha): 0.0
Preemergence herbicidal rating ECHCG ([7]; rate 0.0625 kg/ha): 1.0
Preemergence herbicidal rating ECHCG ([7]; rate 0.1250 kg/ha): 1.0
Preemergence herbicidal rating ECHCG ([7]; rate 0.2500 kg/ha): 1.0
Preemergence herbicidal rating CHEAL ([8]; rate 0.0156 kg/ha): 7.0
Preemergence herbicidal rating CHEAL ([8]; rate 0.0313 kg/ha): 9.0
Preemergence herbicidal rating CHEAL ([8]; rate 0.0625 kg/ha): 7.0
Preemergence herbicidal rating CHEAL ([8]; rate 0.1250 kg/ha): 9.0
Preemergence herbicidal rating CHEAL ([8]; rate 0.2500 kg/ha): 9.0
herbicidal rating ECHCG ([9]; rate 0.0156 kg/ha): 2.0
herbicidal rating ECHCG ([9]; rate 0.0313 kg/ha): 3.0
herbicidal rating ECHCG ([9]; rate 0.0625 kg/ha): 3.0
herbicidal rating AMBEL ([10]; rate 0.0156 kg/ha): 9.0
herbicidal rating AMBEL ([10]; rate 0.0313 kg/ha): 9.0
herbicidal rating AMBEL ([10]; rate 0.0625 kg/ha): 9.0
Preemergence herbicidal rating CASOB ([11]; rate 0.0156 kg/ha): 1.0
Preemergence herbicidal rating CASOB ([11]; rate 0.0313 kg/ha): 1.0
Preemergence herbicidal rating CASOB ([11]; rate 0.0625 kg/ha): 6.0
Preemergence herbicidal rating CASOB ([11]; rate 0.1250 kg/ha): 1.0
Preemergence herbicidal rating CASOB ([11]; rate 0.2500 kg/ha): 7.0
herbicidal rating ABUTH ([12]; rate 0.0156 kg/ha): 9.0
herbicidal rating ABUTH ([12]; rate 0.0313 kg/ha): 9.0
herbicidal rating ABUTH ([12]; rate 0.0625 kg/ha): 9.0
Preemergence herbicidal rating GALAP ([13]; rate 0.0156 kg/ha): 0.0
Preemergence herbicidal rating GALAP ([13]; rate 0.0313 kg/ha): 0.0
Preemergence herbicidal rating GALAP ([13]; rate 0.0625 kg/ha): 0.0
Preemergence herbicidal rating GALAP ([13]; rate 0.1250 kg/ha): 1.0
Preemergence herbicidal rating GALAP ([13]; rate 0.2500 kg/ha): 3.0
